Source: ChEMBL document CHEMBL1156814, “Highly suppressing wild-type HIV-1 and Y181C mutant HIV-1 strains by 10-chloromethyl-11-demethyl-12-oxo-calanolide A with druggable profile” (J Med Chem, 2010)
pEC50: −log10 of the molar value.

Columns and labels:
[1] = tested on: Human immunodeficiency virus 1; test: Antiviral activity against 100 TCID50 HIV1 infected in human TZM-b1 cells assessed as inhibition of viral replication by pseudovirus based assay; type: functional, organism-based; details: for EC50: tzm-b1; for pEC50: Human immunodeficiency virus 1, TZM-b1, read-out: EC50
[2] = Toxicity in African green monkey Vero cells; type: cell-based; details: chlorocebus sabaeus
[3] = Selectivity index, ratio of IC50 for African green monkey Vero cells to EC50 for HIV1; type: toxicity, cell-based; details: read-out: Selectivity Index
[4] = Toxicity in human TZM-b1 cells; type: cell-based
[5] = tested on: Human immunodeficiency virus 1; test: Antiviral activity against HIV1 PNL4-3; type: functional, organism-based; details: Human immunodeficiency virus 1, PNL4-3
[6] = tested on: Human immunodeficiency virus 1; test: Antiviral activity against HIV1 with reverse transcriptase K103N mutation; type: functional, organism-based
[7] = tested on: Human immunodeficiency virus 1; test: Antiviral activity against HIV1 with reverse transcriptase Y181C mutation; type: functional, organism-based
[8] = tested on: Human immunodeficiency virus 1; test: Antiviral activity against HIV1 with reverse transcriptase Y181L mutation; type: functional, organism-based
[9] = tested on: Human immunodeficiency virus 1; test: Antiviral activity against HIV1 with reverse transcriptase G190A mutation; type: functional, organism-based
[10] = tested on: Human immunodeficiency virus 1; test: Antiviral activity against HIV1 with reverse transcriptase […] mutation; type: functional, organism-based

EC50 [1] | pEC50 [1] | Structure (SMILES) | CC50 [2] | selectivity ratio [3] | other results
Not Active |  | CCCc1cc(=O)oc2c3c(c4c(c12)OC(C)(C)C=C4)OC(CNC(=O)Nc1ccccc1OC)CC3=O (stereo not drawn) |  |  | 
Not Active |  | CCCc1cc(=O)oc2c3c(c4c(c12)OC(C)(C)C=C4)OC(CNC(=O)Nc1ccc(F)cc1)CC3=O (stereo not drawn) |  |  | 
Not Active |  | CCCc1cc(=O)oc2c3c(c4c(c12)OC(C)(C)C=C4)OC(CNS(=O)(=O)c1ccc(NC(C)=O)cc1)CC3=O (stereo not drawn) |  |  | 
 | 6.74 | CCCc1cc(=O)oc2c3c(c4c(c12)OC(C)(C)C=C4)OC(COC)CC3=O (stereo not drawn) | 9.89 µM | 39.7 | 

Further lines, the compound ahead of its results:

Structure (SMILES) | EC50 [1] | pEC50 [1] | CC50 [2] | selectivity ratio [3] | other results
CCCc1cc(=O)oc2c3c(c4c(c12)OC(C)(C)C=C4)OC(CS(C)(=O)=O)CC3=O (stereo not drawn) |  | 4.47 |  |  | 
CCCc1cc(=O)oc2c3c(c4c(c12)OC(C)(C)C=C4)O[C@H]1C[C@H]1C3=O (relative stereo) [CIS-10,11-CYCLOPROPYL-12-OXO-CALANOLIDE A] |  | 7.85 | 7.14 µM | 709 | 
CCCc1cc(=O)oc2c3c(c4c(c12)OC(C)(C)C=C4)OC(CN=[N+]=[N-])CC3=O (stereo not drawn) [1'-AZIDEMETHYL-11-DEMETHYL-12-OXO-CALANOLIDE A] | Not Active |  |  |  | Activity [4]: Toxic
CCCc1cc(=O)oc2c3c(c4c(c12)OC(C)(C)C=C4)OC(CN1CCCCC1)CC3=O (stereo not drawn) | Not Active |  |  |  | 
Cc1ccnc2c1NC(=O)c1cccnc1N2C1CC1 [NEVIRAPINE] |  | 8.09 | 27.1 µM | 3300 | pEC50 [5]: 7.01; pEC50 [6]: 4.87; pEC50 [7]: 7.37; pEC50 [8]: 4.98; pEC50 [9]: 6.41; pEC50 [10]: 5.21
CCCc1cc(=O)oc2c3c(c4c(c12)OC(C)(C)C=C4)OC(CBr)CC3=O (stereo not drawn) |  | 6.74 |  |  | 
